Here are results for six compounds from article PMC3015019 (Biological psychiatry, 2010).

Series [1] concerns DA levels in dialysates from the NAc shell. As to the kind of experiment: In-vivo microdialysis of extracellular DA in the NAc shell of freely moving rats. The conditions noted are these: rat; for time for DA levels to return to basal levels after injection: cocaine: highest dose.
The target in another series is T1, σ2 receptor (Cavia porcellus, UniProt H0V073).
T1 sequence (H0V073 1-176): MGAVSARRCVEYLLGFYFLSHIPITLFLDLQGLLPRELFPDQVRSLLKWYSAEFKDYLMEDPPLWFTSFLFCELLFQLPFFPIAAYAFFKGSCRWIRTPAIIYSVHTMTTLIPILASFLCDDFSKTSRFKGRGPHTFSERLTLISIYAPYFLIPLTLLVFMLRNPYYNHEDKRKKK
The series is described as follows: Sigma 2 receptor binding, [3H]DTG displacement in presence of. Also noted: species or system guinea pig. The conditions noted are these: ratio of σ2 to σ1 affinity values.

The target in the next series is σ1 receptor (Cavia porcellus, UniProt Q60492). As to the kind of experiment: Sigma 1 receptor binding, [3H]. Also noted: species or system guinea pig.
The mark [2] stands for this setting: 10–30 mg/kg i.p., administered alone.

Counter-ions that a name gives are not always drawn.

σ1 receptor, sequence (Q60492 whole entry): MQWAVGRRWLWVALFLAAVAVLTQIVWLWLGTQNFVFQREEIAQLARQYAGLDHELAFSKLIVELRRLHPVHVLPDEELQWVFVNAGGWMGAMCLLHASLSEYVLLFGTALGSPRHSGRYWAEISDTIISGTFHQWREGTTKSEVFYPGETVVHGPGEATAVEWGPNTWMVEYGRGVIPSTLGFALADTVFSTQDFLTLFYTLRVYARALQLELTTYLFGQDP

For the compound `CN(CCc1ccc(Cl)c(Cl)c1)CCN1CCCC1` [BD 1008], the “DA levels at 2 hr after injection, antagonist alone” value in series [1] (10 mg/kg i.p., administered alone) is given as ~75 % of basal control values.

Turning to `CN(C)CCN(C)CCc1ccc(Cl)c(Cl)c1` [BD 1047], on σ2 receptor, the σ2/σ1 is listed as 15.2.

Consider `CN1CCN(CCc2ccc(Cl)c(Cl)c2)CC1` [BD 1063], for which, in series [1] (setting [2]), the “later decrease in DA levels, antagonist alone” value is recorded as “about 80 % of baseline” and the “transient (<30 min) non-significant increase in DA levels, antagonist alone” value is “about 30%”. At σ2 receptor, the σ2/σ1 was found to be 70.9.

On to `COC(=O)[C@H]1[C@@H](OC(=O)c2ccccc2)C[C@@H]2CC[C@H]1N2C` [Cocaine, (−)-cocaine hydrochloride], for which the “time for DA levels to return to basal levels after injection” value in series [1] (i.v.) is at most 50 min. The compound also showed a Ki on σ1 receptor of 5.19 µM.

For the compound `Cc1ccccc1N=C(N)Nc1ccccc1C` [DTG], the “time of maximal effect on DA levels” value in series [1] (3.2 mg/kg i.v.) is 20 min; in series [1] (5.6 mg/kg i.v.) it was at most 10 min. In series [1] (i.v., doses higher than 5.6 mg/kg), the acute toxicity entry is on record as “signs of acute toxicity”. For the same compound, the “time for DA levels to return to basal levels after injection” value in series [1] (i.v.) is listed as at most 45 min.

For `CC(=O)c1ccc2c(c1)oc(=O)n2CCCCN1CCN(c2ccc(F)cc2)CC1` [SN79], the “effect on extracellular levels of DA, antagonist alone” value in series [1] (1–3 mg/kg i.p., up to 100 min after administration) is “did not significantly modify”.

As a reminder, the Ki is a measure of affinity in units of concentration, obtained from inhibition or displacement.
